How the values were obtained:
[1] = tested on: CCM1^-/- BOECs in co-culture with CCM1^+/- BOECs; test: Co-culture of patient-specific BOECs, frequency of second knockout allele; type: cell-based, human; details: 10 µM (Fig. 23)
Protocol: (§1) Clonally expanded CI-huVEC lines with biallelic loss-of-function variants in the first coding exon of CCM3 have been described before or were established according to a published CRISPR/Cas9 genome editing protocol. Blood outgrowth endothelial cells (BOECs) were cultured in EGM-2 medium (Lonza, Basel, Switzerland) supplemented with 18 % FCS. With the approval of the local ethics committee (University Medicine Greifswald, Germany; No.: BB 047/14a), CCM1^-/- BOECs had been established previously from CCM1^+/- BOECs of a CCM1 mutation carrier with CRISPR/Cas9 genome editing. Mutant and wild-type ECs were co-cultured in 96-well plates under standard culture conditions with the indicated mutant-to-wild-type ratios. 2500 cells were seeded per well.
The fraction of mutant alleles in co-culture were analysed by amplicon deep sequencing or T7EI cleavage assay. In brief, genomic target regions were first amplified by PCR. For T7E1 cleavage assays, heteroduplexes were formed and digested with T7EI enzyme (New England Biolabs, Frankfurt am Main, Germany). Cleavage products were visualised by gel electrophoresis and analysed with the Image Lab software (v6.0, Bio-Rad, Hercules, CA, USA). For NGS analysis, sequencing adapters and individual barcodes were introduced in a second round of PCR [7]. […] The data were analysed with the SeqNext software (JSI Medical Systems, Ettenheim, Germany).

[2] = tested on: CCM3^-/- CI-huVECs in co-culture with CCM3^+/+ CI-huVECs; test: Spike-in co-culture assay / apoptosis compound library screening: CCM3 knockout allele frequency by amplicon deep sequencing; type: cell-based, human
Protocol: as §1
An apoptosis compound library with 189 small molecules that target apoptosis, survival and proliferation was used in a high throughput screening approach (HY-L003[HY-LD-000001651]; MedChem Express, Monmouth Junction, NJ, USA). Co-cultures were treated with 10 µM of each substrate for six days. Compounds were added 5 h and 3 days after cell seeding.
NSC59984 (IUPAC: (2E)-1-(4-Methyl-1-piperazinyl)-3-(5-nitro-2-furyl)-2-propen-1-one, HY19726, MedChem Express), was used for individual experiments with the indicated concentrations.
The fraction of mutant alleles in co-culture were analysed by amplicon deep sequencing or T7EI cleavage assay. In brief, genomic target regions were first amplified by PCR. For T7E1 cleavage assays, heteroduplexes were formed and digested with T7EI enzyme (New England Biolabs, Frankfurt am Main, Germany). Cleavage products were visualised by gel electrophoresis and analysed with the Image Lab software (v6.0, Bio-Rad, Hercules, CA, USA). For NGS analysis, sequencing adapters and individual barcodes were introduced in a second round of PCR [7]. Sequencing libraries were pooled and sequenced on a MiSeq instrument with 2 x 150 cycles (Illumina, San Diego, CA, USA). The data were analysed with the SeqNext software (JSI Medical Systems, Ettenheim, Germany).

[3] = tested on: CCM3^-/- cells in fusion organoids; test: hiPSC-derived vascular fusion organoids, fluorescence imaging; type: cell-based, human; details: 10 µM, continuous culture, imaged day 5, 7, 10
Protocol: hiPSCs were differentiated into vascular organoids according to the protocol of Wimmer and colleagues. Briefly, 800,000 hiPSCs were seeded in ultra-low attachment 6-well plates (Corning) in aggregation medium for 2 days until aggregates had formed. On day 0, mesodermal induction was initiated with CHIR99021 (Tocris Bioscience, Bristol, United Kingdom) and BMP-4 (Miltenyi Biotec) in N2B27 medium. Supplementation of VEGF-A (PeproTech, Inc., Rocky Hill, NJ, USA) and forskolin (Sigma-Aldrich) on day 3 induced vascular differentiation. On day 5, vascular aggregates were embedded in a collagen I-Matrigel matrix. VEGF-A, FGF-2 (Miltenyi Biotec), and FBS (Thermo Fisher Scientific) enriched StemPro-34 medium (Thermo Fisher Scientific) was added for vessel sprouting. Vascular network extraction was performed on day 10.

[4] = tested on: CCM3^-/- CI-huVECs; test: Cell cycle analysis by flow cytometry; type: cell-based, human; details: 10 µM, 72 h; DMSO 75.9 %
Protocol: Plating efficiencies were determined as follows: CCM3^+/+ and CCM3^-/- CI-huVEC were seeded in 6-well-plates with either 100 or 250 cells per well. Colonies fixed and stained after eight days with a solution of glutaraldehyde (G6257, Sigma-Aldrich, final concentration 6 %) and crystal violet (HT901, Sigma-Aldrich, final concentration 0.5 %). The plating efficiency was defined as the ratio between the number of colonies and the number of plated cells. A cell cycle analysis kit (MAK344, Sigma-Aldrich) was used to determine cell cycle profiles by flowcytometry (LSRII Flow Cytometer System, BD Biosciences, San Jose, CA, USA). One day after plating, cells were synchronised for 24 h with ECGM supplemented with 0.1 % FCS. Prior to FACS analysis, cells were incubated with ECGM + 10 % FCS for another 24 h or treated with 10 µM NSC59984 for 72 h. Data were analysed with FlowJo v10.7.1 (BD Biosciences).

[5] = tested on: CI-huVECs; test: Bright-field microscopy of EC morphology after compound treatment; type: cell-based, human; details: library screening follow-up (Fig. 14)
[6] = tested on: human tumour cell lines; details: cited from earlier work
[7] = tested on: caspase-3; test: Caspase-3 activity assay; type: cell-based, human
Protocol: The proliferation rate of mutant and wild-type ECs in monoculture was quantified with the CyQuant® Cell Proliferation Assay Kit (C7026, Thermo Fisher Scientific). To discriminate the proliferation rates of CCM3^+/+ and CCM3^-/- CI-huVEC in co-culture, the CyQuant® Cell Proliferation Assay results were combined with mutant allele frequencies that had been determined by amplicon deep sequencing. To analyse their sensitivity to apoptosis, mutant and wild-type ECs were seeded in 96-well plates with 15.000 cells per well, and treated with staurosporine (S440, Sigma-Aldrich, St. Louis, MO, USA) 24 h later. The Caspase-3 DEVD-R110 Fluorometric HTS Assay Kit (30009, Biotium, Fremont, CA, USA), the Cell Meter™ Caspase 8 Activity Apoptosis Assay Kit (22798, AAT Bioquest, Sunnyvale, CA, USA), and the Cell Meter™ Caspase 9 Activity Apoptosis Assay Kit (22799, AAT Bioquest) were used following the manufacturer's instructions.

EC morphology / endothelial phenotype [5]: minimal effects on EC morphology
Caspase-3 activities ([7]; treatment for 24 h, CCM3^+/+ and CCM3^-/- CI-huVECs (Fig. 16)): did not increase caspase-3 activities
SMILES: CN1CCN(C(=O)/C=C/c2ccc([N+](=O)[O-])o2)CC1 [NSC59984, (E)-1-(4-methylpiperazin-1-yl)-3-(5-nitrofuran-2yl)prop-2-en-1-one]
Expansion of CCM1^-/- BOECs in co-culture [1]: significantly blocked the expansion of CCM1^-/- BOECs
Mutant EC expansion at high spike-in ratios ([2]; 10 µM (Fig. 20)): blocked mutant EC expansion even at high spike-in ratios but did not decrease mutant allele frequencies
Clonal expansion of mutant ECs after end of treatment ([2]; 10 µM for six days, then seven additional days without treatment (Fig. 21)): still efficiently blocked after the end of NSC59984 treatment
Knockout allele frequencies ([2]; 10 µM of each compound, six days, added 5 h and 3 days after seeding, DMSO-treated co-culture controls 33.5 %): 10.2%
Mutant EC expansion after pretreatment of CCM3^-/- CI-huVECs before co-culture ([2]; 6 days co-culture without additional treatment (Fig. 22)): completely prevented mutant EC expansion
Clonal expansion of CCM3^-/- CI-huVECs in co-culture ([2]; different concentrations (Fig. 18)): blocked the clonal expansion of CCM3^-/- CI-huVECs in a concentration-dependent manner
Proliferation of CCM3^-/- cells in fusion organoids [3]: inhibited the proliferation of CCM3^-/- cells in fusion organoids
Cells in G0/G1 (G0/G1 arrest) [4]: 87.7%
Cell growth of tumour cell lines [6]: reduce cell growth in various human tumour cell lines
Genotoxic effects on normal cells [6]: minimal genotoxic effects on normal cells
Apoptosis / caspase-3 activation ([7]; Fig. 16): induced apoptosis at a tolerable level
